In patent US20220135591A1, “HETEROCYCLIC COMPOUNDS AS INHIBITORS OF MONOACYLGLYCEROL LIPASE (MAGL)” (Hoffmann-La Roche Inc., priority 2019, published 2022) one finds IC50 data, which are given here for 25 molecules.

The assay has as its target T1, MAGL (Homo sapiens, UniProt Q99685).
T1 sequence (Q99685 1-303): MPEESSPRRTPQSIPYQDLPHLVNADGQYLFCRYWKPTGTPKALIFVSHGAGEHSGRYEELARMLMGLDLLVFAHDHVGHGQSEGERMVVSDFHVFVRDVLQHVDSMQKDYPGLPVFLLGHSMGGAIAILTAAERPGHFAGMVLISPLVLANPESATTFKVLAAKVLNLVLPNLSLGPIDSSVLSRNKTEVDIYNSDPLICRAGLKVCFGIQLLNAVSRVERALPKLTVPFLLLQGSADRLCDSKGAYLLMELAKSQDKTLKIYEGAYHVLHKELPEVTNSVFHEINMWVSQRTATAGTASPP
As to the kind of experiment: 2-AG assay: MAGL inhibitory activity by hydrolysis of 2-arachidonoylglycerol to arachidonic acid, mass spectrometry. The assay is classed as biochemical. To be noted: 2-AG assay (values marked [b]). On the procedure:
Alternatively, compounds were profiled for MAGL inhibitory activity by determining the enzymatic activity by following the hydrolysis of the natural substrate 2-arachidonoylglycerol (2-AG) resulting in arachidonic acid, which can be followed by mass spectrometry. This assay is hereinafter abbreviated “2-AG assay”.
The 2-AG assay was carried out in 384 well assay plates (PP, Greiner Cat #784201) in a total volume of 20 μL. Compound dilutions were made in 100% DMSO (VWR Chemicals 23500.297) in a polypropylene plate in 3-fold dilution steps to give a final concentration range in the assay from 12.5 μM to […]. 0.25 μL compound dilutions (100% DMSO) were added to 9 μL MAGL in assay buffer (50 mM TRIS (GIBCO, 15567-027), 1 mM EDTA (Fluka, 03690-100 mL), 0.01% (v/v) Tween. After shaking, the plate was incubated for 15 min at RT. To start the reaction, 10 μL 2-arachidonoylglycerol in assay buffer was added. The final concentrations in the assay was […] and 8 μM 2-arachidonoylglyerol. After shaking and 30 min incubation at RT, the reaction was quenched by the addition of 40 μL of ACN containing 4 μM of d8-arachidonic acid. The amount of arachidonic acid was traced by an online SPE system (Agilent Rapidfire) coupled to a triple quadrupole mass spectrometer (Agilent 6460). A C18 SPE cartridge (G9205A) was used in an ACN/water liquid setup. The mass spectrometer was operated in negative electrospray mode following the mass transitions 303.1→259.1 for arachidonic acid and 311.1→267.0 for d8-arachidonic acid. The activity of the compounds was calculated based on the ratio of intensities [arachidonic acid/d8-arachidonic acid].

Structures are written as SMILES.

As usually defined, the IC50 is the concentration at which inhibition is half-maximal. With `CC(C)(C)Cn1cc(-c2ccc(C(=O)N3CCN(c4nc5nc(Cl)ccc5o4)C[C@H]3CO)cc2)nn1` (stereo in doubt) [Example 289, [(2S)-4-(5-chlorooxazolo[4,5-b]pyridin-2-yl)-2-(hydroxymethyl)piperazin-1-yl]-[4-[1-(2,2-dimethylpropyl)triazol-4-yl]phenyl]methanone], the IC50 was 63 nM. In other words, the double-digit nanomolar range.

As for `CC(C)(C)Cn1cc(-c2ccc(C(=O)N3CCN(c4nc5nc(Cl)ccc5o4)C[C@@H]3CO)cc2)nn1` (stereo in doubt) [Example 290, [(2R)-4-(5-chlorooxazolo[4,5-b]pyridin-2-yl)-2-(hydroxymethyl)piperazin-1-yl]-[4-[1-(2,2-dimethylpropyl)triazol-4-yl]phenyl]methanone], inhibition was half-maximal at 2070 nM (IC50). Compared with the last molecule, the IC50 is about 33-fold higher. Regarding `Cc1ccc2oc(N3CCN(C(=O)c4ccc(-c5nnc(CC(C)(C)C)n5C)cc4)CC3)nc2n1` [Example 74, [4-[5-(2,2-dimethylpropyl)-4-methyl-1,2,4-triazol-3-yl]phenyl]-[4-(5-methyloxazolo[4,5-b]pyridin-2-yl)piperazin-1-yl]methanone], 327 nM corresponded to half-maximal inhibition (IC50).

`Cc1ccc2oc(N3CCN(C(=O)c4ccc(-c5cn(CC(C)(C)C)nn5)cc4)CC3)nc2n1` [Example 75, [4-[1-(2,2-dimethylpropyl)triazol-4-yl]phenyl]-[4-(5-methyloxazolo[4,5-b]pyridin-2-yl)piperazin-1-yl]methanone] displayed a half-inhibitory concentration (IC50) of 19 nM. Against the preceding molecule, the IC50 is about 17-fold lower. With `Cn1c(-c2ccc(C(=O)N3CCN(c4nc5nc(Cl)ccc5o4)CC3)cc2)nnc1C(C)(C)C` [Example 76, [4-(5-tert-butyl-4-methyl-1,2,4-triazol-3-yl)phenyl]-[4-(5-chlorooxazolo[4,5-b]pyridin-2-yl)piperazin-1-yl]methanone], inhibition was half-maximal at 1310 nM (IC50). In turn, `Cc1ccc2oc(N3CCN(C(=O)c4ccc(-c5nnc(C(C)(C)C)n5C)cc4)CC3)nc2n1` [Example 77, [4-(5-tert-butyl-4-methyl-1,2,4-triazol-3-yl)phenyl]-[4-(5-methyloxazolo[4,5-b]pyridin-2-yl)piperazin-1-yl]methanone] registered an IC50 of 2320 nM. As for `CC(C)(C)c1nc(-c2ccc(C(=O)N3CCN(c4nc5nc(Cl)ccc5o4)CC3)cc2Cl)no1` [Example 78, [4-(5-tert-butyl-1,2,4-oxadiazol-3-yl)-3-chloro-phenyl]-[4-(5-chlorooxazolo[4,5-b]pyridin-2-yl)piperazin-1-yl]methanone], the IC50 is 4 nM. This IC50 lies about 580-fold lower than the previous one. `Cc1ccc2oc(N3CCN(C(=O)c4ccc(-c5noc(C(C)(C)C)n5)c(Cl)c4)CC3)nc2n1` [Example 79, [4-(5-tert-butyl-1,2,4-oxadiazol-3-yl)-3-chloro-phenyl]-[4-(5-methyloxazolo[4,5-b]pyridin-2-yl)piperazin-1-yl]methanone]: the IC50 was 24 nM. As to `CC(C)(C)c1nc(-c2c(F)cc(C(=O)N3CCN(c4nc5nc(Cl)ccc5o4)CC3)cc2F)no1` [Example 80, [4-(5-tert-butyl-1,2,4-oxadiazol-3-yl)-3,5-difluoro-phenyl]-[4-(5-chlorooxazolo[4,5-b]pyridin-2-yl)piperazin-1-yl]methanone], half-maximal inhibition (IC50) was put at 21 nM. This IC50 and that of the molecule before are within 1.5-fold of each other. On to `CC(C)(C)c1nc(-c2ccc(C(=O)N3CCN(c4nc5nc(Cl)ccc5o4)CC3)cc2C(F)(F)F)no1` [Example 81, [4-(5-tert-butyl-1,2,4-oxadiazol-3-yl)-3-(trifluoromethyl)phenyl]-[4-(5-chlorooxazolo[4,5-b]pyridin-2-yl)piperazin-1-yl]methanone], for which the IC50 was determined as 9 nM. `Cc1ccc2oc(N3CCN(C(=O)c4ccc(-c5nnc(C(C)(C)C)o5)c(C)c4)CC3)nc2n1` [Example 82, [4-(5-tert-butyl-1,3,4-oxadiazol-2-yl)-3-methyl-phenyl]-[4-(5-methyloxazolo[4,5-b]pyridin-2-yl)piperazin-1-yl]methanone]: it took 37 nM to reach half-maximal inhibition (IC50). Under `Cc1cc(C(=O)N2CCN(c3nc4nc(Cl)ccc4o3)CC2)ccc1-c1nnc(C(C)(C)C)o1` [Example 83, [4-(5-tert-butyl-1,3,4-oxadiazol-2-yl)-3-methyl-phenyl]-[4-(5-chlorooxazolo[4,5-b]pyridin-2-yl)piperazin-1-yl]methanone] stands 11 nM; under `CC(C)(C)Cn1ncc(-c2ccc(C(=O)N3CCN(c4nc5nc(Cl)ccc5o4)CC3)cc2F)n1` [Example 84, (4-(5-chlorooxazolo[4,5-b]pyridin-2-yl)piperazin-1-yl)(3-fluoro-4-(2-neopentyl-2H-1,2,3-triazol-4-yl)phenyl)methanone], 2 nM; under `Cc1ccc2oc(N3CCN(C(=O)c4ccc(-c5cnn(CC(C)(C)C)n5)c(F)c4)CC3)nc2n1` [Example 85, (3-fluoro-4-(2-neopentyl-2H-1,2,3-triazol-4-yl)phenyl)(4-(5-methyloxazolo[4,5-b]pyridin-2-yl)piperazin-1-yl)methanone], 5 nM. `CC(C)(C)Cn1cc(-c2ccc(C(=O)N3CCN(c4nc5nc(Cl)ccc5o4)CC3)cc2F)nn1` [Example 86, (4-(5-chlorooxazolo[4,5-b]pyridin-2-yl)piperazin-1-yl)(3-fluoro-4-(1-neopentyl-1H-1,2,3-triazol-4-yl)phenyl)methanone] registered an IC50 of 2 nM. Regarding `Cc1ccc2oc(N3CCN(C(=O)c4ccc(-c5cn(C(C)(C)C)nn5)cc4)CC3)nc2n1` [Example 87, (4-(1-(tert-butyl)-1H-1,2,3-triazol-4-yl)phenyl)(4-(5-methyloxazolo[4,5-b]pyridin-2-yl)piperazin-1-yl)methanone], the IC50 stood at 151 nM. This IC50 lies about 76-fold higher than the previous one.

Take `CC(C)(C)n1cc(-c2ccc(C(=O)N3CCN(c4nc5nc(Cl)ccc5o4)CC3)cc2)nn1` [Example 88, (4-(1-(tert-butyl)-1H-1,2,3-triazol-4-yl)phenyl)(4-(5-chlorooxazolo[4,5-b]pyridin-2-yl)piperazin-1-yl)methanone]: the IC50 came out at 71 nM. `Cc1ccc2oc(N3CCN(C(=O)c4ccc(-c5ncn(C(C)(C)C)n5)c(Cl)c4)CC3)nc2n1` [Example 89, (4-(1-(tert-butyl)-1H-1,2,4-triazol-3-yl)-3-chlorophenyl)(4-(5-methyloxazolo[4,5-b]pyridin-2-yl)piperazin-1-yl)methanone] showed an IC50 of 25 nM. Compared with the last molecule, the IC50 is about 2.8-fold lower. Molecule `CC(C)(C)n1cnc(-c2ccc(C(=O)N3CCN(c4nc5nc(Cl)ccc5o4)CC3)cc2Cl)n1` [Example 90, (4-(1-(tert-butyl)-1H-1,2,4-triazol-3-yl)-3-chlorophenyl)(4-(5-chlorooxazolo[4,5-b]pyridin-2-yl)piperazin-1-yl)methanone] came in with a 50% inhibitory concentration (IC50) of 16 nM. `CC(C)(C)Cn1ncc(-c2c(F)cc(C(=O)N3CCN(c4nc5nc(Cl)ccc5o4)CC3)cc2F)n1` [Example 91, (4-(5-chlorooxazolo[4,5-b]pyridin-2-yl)piperazin-1-yl)(3,5-difluoro-4-(2-neopentyl-2H-1,2,3-triazol-4-yl)phenyl)methanone] registered an IC50 of 3 nM. `Cc1ccc2oc(N3CCN(C(=O)c4cc(F)c(-c5cnn(CC(C)(C)C)n5)c(F)c4)CC3)nc2n1` [Example 92, (3,5-difluoro-4-(2-neopentyl-2H-1,2,3-triazol-4-yl)phenyl)(4-(5-methyloxazolo[4,5-b]pyridin-2-yl)piperazin-1-yl)methanone]: the 50% inhibitory concentration (IC50) amounted to 10 nM. In turn, `CC(C)(C)Cn1cc(-c2c(F)cc(C(=O)N3CCN(c4nc5nc(Cl)ccc5o4)CC3)cc2F)nn1` [Example 93, (4-(5-chlorooxazolo[4,5-b]pyridin-2-yl)piperazin-1-yl)(3,5-difluoro-4-(1-neopentyl-1H-1,2,3-triazol-4-yl)phenyl)methanone] registered a 50% inhibitory concentration (IC50) of 7 nM.

Regarding `Cc1ccc2oc(N3CCN(C(=O)c4ccc(-c5cn(C67CC(C6)C7)nn5)cc4)CC3)nc2n1` [Example 94, (4-(1-(bicyclo[1.1.1]pentan-1-yl)-1H-1,2,3-triazol-4-yl)phenyl)(4-(5-methyloxazolo[4,5-b]pyridin-2-yl)piperazin-1-yl)methanone], inhibition was half-maximal at 88 nM (IC50). This IC50 lies about 13-fold higher than the previous one.

With `O=C(c1ccc(-c2cn(C34CC(C3)C4)nn2)cc1)N1CCN(c2nc3nc(Cl)ccc3o2)CC1` [Example 95, (4-(1-(bicyclo[1.1.1]pentan-1-yl)-1H-1,2,3-triazol-4-yl)phenyl)(4-(5-chlorooxazolo[4,5-b]pyridin-2-yl)piperazin-1-yl)methanone], half-maximal inhibition (IC50) required 42 nM. Against the preceding molecule, the IC50 is about 2.1-fold lower. `Cc1ccc2oc(N3CCN(C(=O)c4ccc(-c5ncn(C(C)(C)C)n5)c(C)c4)CC3)nc2n1` [Example 96, (4-(1-(tert-butyl)-1H-1,2,4-triazol-3-yl)-3-methylphenyl)(4-(5-methyloxazolo[4,5-b]pyridin-2-yl)piperazin-1-yl)methanone]: the 50% inhibitory concentration (IC50) amounted to 23 nM. Compared with the last molecule, the IC50 is about 1.8-fold lower.
